Measurements taken from publication PMC2212834 (The Journal of Experimental Medicine, 2005).

Target: T1, ChemR23 (Homo sapiens, UniProt Q99788)
T1 sequence (Q99788 1-373): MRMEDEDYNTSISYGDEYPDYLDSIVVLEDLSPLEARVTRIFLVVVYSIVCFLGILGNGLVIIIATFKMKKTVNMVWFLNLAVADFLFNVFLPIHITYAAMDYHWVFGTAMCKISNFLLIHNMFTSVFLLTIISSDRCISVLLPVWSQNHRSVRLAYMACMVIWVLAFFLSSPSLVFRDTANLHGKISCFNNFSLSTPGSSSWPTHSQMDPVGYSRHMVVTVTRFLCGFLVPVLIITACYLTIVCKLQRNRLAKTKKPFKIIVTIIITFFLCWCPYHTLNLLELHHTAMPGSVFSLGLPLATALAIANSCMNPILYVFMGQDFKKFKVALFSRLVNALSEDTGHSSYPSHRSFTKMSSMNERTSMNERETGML
Test: [3H]-RvE1 saturation radioligand binding
Format: cell-based

Kd: 11.3 ± 5.4 nM
Compound: CC[C@@H](O)/C=C/C=C\C[C@@H](O)/C=C/C=C/C=C\[C@@H](O)CCCC(=O)O [RvE1, 5S,12R,18R-trihydroxy-6Z,8E,10E,14Z,16E-EPA]
